Experiments:
[1] = test system: ovariectomized BALB/c mice; assay: Bone ECM material evaluation by infrared microspectroscopy, midshaft femur; type: in vivo, mouse (BALB/cJRj, female); conditions: 28 days, n=8
Experimental: Eight animals were randomly assigned to each group.
Distal halves of the right femur were embedded undecalcified in pMMA after dehydration and infiltration. One micrometer-thick cross-section of the midshaft femur was cut with an ultramicrotome (Leica EM UC7, Leica microsystems, Nanterre, France) and deposited on BaF2 windows. Spectral analysis was performed, using a Bruker Hyperion 3000 infrared microscope coupled to a Bruker Vertex 70 spectrometer equipped with a single element mercury cadmium telluride (MCT) detector, between double calcein labels, as indicator of bone formation site. Mid-infrared spectra were recorded at a resolution of 4 cm^-1 (Spectral range 850–2000 cm^-1), with 32 accumulations in transmission mode. Background spectra were collected under identical conditions from the same BaF2 windows at the beginning and end of each experiment to ensure instrument stability. Post-processing was performed using Matlab R2023b (The Mathworks, Natick, CA) and included Mie scattering correction, pMMA subtraction, normalization and denoising (Savitzky-Golay algorithm, degree 2, span 9) prior to second derivative spectroscopy and curve fitting routines as previously reported in detail ([35]). A signal-to-noise ratio was computed in the region 1850-2000 cm^-1 to ensure proper denoising and quality of FTIR spectra for subsequent second derivative and curve fitting. Bone ECM material parameters were: Phosphate/Amide ratio (area ratio of v1,v3 phosphate and amide I); mineral crystallinity/maturity (XST, area ratio of subbands located at subbands ~1030 cm^-1 and ~1020 cm^-1), carbonate/phosphate ratio (area ratio of v2 carbonate and v1,v3 phosphate), and collagen maturity (intensity ratio of subbands located at 1660 cm^-1/1690 cm^-1) ([35]).

[2] = test system: mouse bone marrow-derived mesenchymal stem cell (BMMSC) cultures; assay: Bone marrow-derived mesenchymal stem cell osteogenic differentiation; type: cell-based, mouse (BALB/cJRj); conditions: 1 nM exendin-4, osteogenic medium, n = 5 independent experiments
Experimental: Femurs and tibias were isolated from 12-week-old female BALB/c mice (BALB/cJRj; Janvier Labs, Saint-Berthevin, France). Bones were rapidly dissected and cleared of soft tissue. The distal epiphyses were removed, and the marrow cavities were flushed with sterile PBS to collect bone marrow cells. Cells were suspended in growth medium composed of α-MEM supplemented with 10% fetal bovine serum, 100 U/mL penicillin-streptomycin, and 0.25 μL/mL Fungizone (Thermo Fisher Scientific), and seeded into 6-well plates at a density of 2.5 × 10^6 cells/well. Cultures were maintained at 37°C in a humidified incubator with 5% CO2. Cells remained undisturbed for 5 days to promote adherence. […]
On day 14, cells were washed with PBS and subjected to three freeze-thaw cycles. […] Enzymatic activity was measured using the fluorescent substrate 4-methylumbelliferyl phosphate (Sigma-Aldrich) as previously described ([38]).
On day 21, cells were fixed with 3.7% (w/v) formaldehyde in PBS for 10 min, rinsed with PBS, and stained with 1.5% (w/v) Alizarin Red S for 5 min. […] Bound dye was extracted using 10% acetic acid, neutralized with 10% ammonium hydroxide, and absorbance was measured at 550 nm using a spectrophotometer. […]

[3] = test system: splenocytes isolated from BALB/c ovariectomized (OVX) mice; assay: Osteoclast differentiation assay (TRAP staining); type: cell-based, mouse (BALB/cJRj); conditions: 10 nM Exendin-4, M-CSF + RANKL, 7 days
Experimental: To investigate the potential effect of Exendin-4 (Ex-4) on osteoclast differentiation, we used splenocytes isolated from BALB/c ovariectomized (OVX) mice (BALB/cJRj; Janvier Labs, Saint-Berthevin, France). Mice were ovariectomized at 12 weeks of age, and splenocytes were isolated 4 weeks post-ovariectomy. The splenocytes were cultured in osteoclast differentiation medium (α-MEM supplemented with 10% FBS, 100 U/mL penicillin/streptomycin, 50 ng/mL macrophage colony-stimulating factor (M-CSF, Bio-Techne, Noyal-Chatillon-sur-Seiche, France), and 30 ng/mL receptor activator of NF-κB ligand (RANKL, Bio-Techne) in the presence or absence of 10 nM Exendin-4. D-Ala2-GIP at a concentration of 10 nM was used as positive controls, as previously reported ([39]). Cells were cultured for 7 days, with media changes every 2 days. Osteoclast differentiation was evaluated by TRAP staining, as previously described ([39]).
Supplementary Figure S4 – Effect of Exendin-4 on osteoclast differentiation in vitro. Splenocytes were isolated from BALB/c ovariectomized (OVX) mice at 12 weeks of age, 4 weeks post-ovariectomy, and cultured in osteoclast differentiation medium containing M-CSF and RANKL, with or without 10 nM Exendin-4. Cells were cultured for 7 days, and osteoclast differentiation was assessed by TRAP staining.
D-Ala2-GIP was used at 10 nM and served as positive controls. […]

Q: What does the source list for exendin-4 [Ex-4]?
A: increase in collagen maturity (1660/1690 cm^-1 subband ratio) ([1]; icv Ex-4 70 pmol/day, OVX, p<0.001): 22%; bone mineral (material level) ([1]; s.c. Ex-4 ~700 pmol/day, OVX): not affected; increase in collagen maturity (1660/1690 cm^-1 subband ratio) ([1]; s.c. Ex-4 ~700 pmol/day, vs OVX+vehicle, p=0.005): 18%; alkaline phosphatase (ALP) activity ([2]; day 14): did not result in any significant increase; extracellular matrix mineralization (Alizarin Red S) ([2]; day 21): did not result in any significant increase; osteoclast differentiation [3]: No significant differences in osteoclast differentiation
